Assay results from US5232684A, “Labelled resiniferatoxin, compositions thereof, and methods for using the same” (priority 1990, dated 1993).

Legend:
[1] = molecular target: T1, capsaicin receptor (pig DRG membranes) (Sus scrofa, UniProt F1RLJ0); experiment: biochemical; assay type: binding
T1 construct: tissue Mt; Airy Locker Co., Mt; Airy, MD; host or cells: pig dorsal root ganglia
Description: Membrane preparations are obtained from the DRG and Gasser ganglia of female Sprague-Dawley rats (250-300 g); animals are sacrificed by decapitation under ether anesthesia, the ganglia removed and collected into ice-cold disrupting buffer (5 mM KCl, 5.8 mM NaCl, 2 mM MgCl2, 12 mM glucose, 137 mM sucrose, 10 mM HEPES, 5 mM DTT, 2 mM EGTA, pH 7.4). After homogenization with the aid of a Polytron tissue homogenizer, samples are filtered over surgical gauze and then washed twice with the same buffer and stored at -70° C. Particulate fractions are obtained from other rat neural tissues (cerebellum, spinal cord, preoptic region, striatum, substantia nigra) and from DRG of pigs (Mt. Airy Locker Co., Mt. Airy, MD), sheep, cows (kindly provided by Dr. Solomon, USDA, Beltsville, MD), and chickens (Truslow Farms, Chesterton, MD) by a similar procedure.
Subcellular fractions are prepared by a modification of the method of Bastiaensen et al. (Bastiaensen, E., Miserez, B. and De Potter, W., Subcellular fractionation of bovine ganglion stellatum: co-storage of noradrenaline, Met-enkephalin and neuropeptide Y in large `dense-cored` vesicles, Brain Res., 442 (1988) 124-130. ) Briefly: DRG are dissected free from capsule, cut into small pieces with scissors, and then homogenized with a teflon pestle (20 strokes) in ice-cold 0.25 M sucrose/ 20 mM Tris-Cl (pH 7.4) buffer. The homogenate is filtered over surgical gauze; it is then centrifuged for 10 min at 2000 gmax, giving a pellet P1, and again at 10 000 gmax for 15 min giving a pellet P2. The P1 and P2 pellets are saved as nuclear and mitochondrial fractions for binding studies. The resulting supernatant is further centrifuged at 50 000 gmax for 60 min, and then the pellet is harvested as the plasma-membrane enriched microsomal fraction.
(§1) The binding assays are carried out in a volume of 250 ul, containing assay buffer (same as the disrupting buffer but omitting DTT and EGTA and including 0.75 mM CaCl2), 26-30 ug of membrane protein and 0.25 mg/ml bovine serum albumin. […] Tubes are kept on ice while the additions are made. The assay mixture is incubated for 10 min at 37° C.; it is then cooled on ice. 150 ul of the mixture is pipetted onto Whatman GF/C or GF/F glass fiber filters presoaked with 10 mg/ml bovine serum albumin in 20 mM Tris-Cl (pH 7.4) and filtered immediately. An aliquot of 50 ul of the mixture is removed to determine total radioactivity. The filters are washed with 100 ml of ice-cold 20 mM Tris-Cl, pH 7 4, containing 0.1 mg/ml bovine serum albumin, and the bound radioactivity is determined by scintillation counting. Non-specific binding is determined in the presence of 100-1000 nM non-radioactive RTX.
Binding data from saturation experiments using increasing concentrations of hot ligand are analyzed using the collection of computer programs described by McPherson (McPherson, G.A., Analysis of radioligand binding experiments: a collection of computer programs for the IBM PC, J.Pharmacol.Methods, 14 (1985) 213-228).
Scatchard and Hill transformations are performed by the Equilibrium Binding Data Analysis program referred to as EBDA. Data are further analyzed by the curvilinear regression program LIGAND (Munson, R.J. and Rodbard, D., LIGAND: a versatile computerized approach for characterization of ligand-binding systems, Anal.Biochem, 107 (1980) 220-239).
RTX binding is also analyzed in the presence of a fixed, low (60 pM or 300 pM) concentration of [^3 H]RTX and increasing concentrations of non-radioactive RTX or other ligand.

[2] = molecular target: T2, capsaicin receptor (dorsal horn from pig spinal cord) (Sus scrofa, UniProt F1RLJ0); experiment: Binding to membrane preparations from dissected dorsal horn of pig spinal cord
T2 construct: membrane preparations from dissected dorsal horn from pig spinal cord; from tissue; host or cells: dissected dorsal horn of pig spinal cord
Description: as §1, with “RTX. Under these conditions approximately 30% of the non-specific binding is due to sticking of [^3 H]RTX to the filters. The remainder presumably reflects partitioning into the lipid phase of the membranes, as had been observed previously for typical phorbol esters (Driedger, P.E. and Blumberg, P.M., Specific binding of phorbol ester tumor promoters, Proc. Natl. Acad. Sci. U.S.A., 77 (1980) 567-571). […]” for “RTX.”
Alternatively, binding can be measured to membrane preparations from dissected dorsal horn from pig spinal cord. […]

[3] = system: striatum; experiment: [^3H]RTX binding to rat striatum

T1 sequence (F1RLJ0 1-841): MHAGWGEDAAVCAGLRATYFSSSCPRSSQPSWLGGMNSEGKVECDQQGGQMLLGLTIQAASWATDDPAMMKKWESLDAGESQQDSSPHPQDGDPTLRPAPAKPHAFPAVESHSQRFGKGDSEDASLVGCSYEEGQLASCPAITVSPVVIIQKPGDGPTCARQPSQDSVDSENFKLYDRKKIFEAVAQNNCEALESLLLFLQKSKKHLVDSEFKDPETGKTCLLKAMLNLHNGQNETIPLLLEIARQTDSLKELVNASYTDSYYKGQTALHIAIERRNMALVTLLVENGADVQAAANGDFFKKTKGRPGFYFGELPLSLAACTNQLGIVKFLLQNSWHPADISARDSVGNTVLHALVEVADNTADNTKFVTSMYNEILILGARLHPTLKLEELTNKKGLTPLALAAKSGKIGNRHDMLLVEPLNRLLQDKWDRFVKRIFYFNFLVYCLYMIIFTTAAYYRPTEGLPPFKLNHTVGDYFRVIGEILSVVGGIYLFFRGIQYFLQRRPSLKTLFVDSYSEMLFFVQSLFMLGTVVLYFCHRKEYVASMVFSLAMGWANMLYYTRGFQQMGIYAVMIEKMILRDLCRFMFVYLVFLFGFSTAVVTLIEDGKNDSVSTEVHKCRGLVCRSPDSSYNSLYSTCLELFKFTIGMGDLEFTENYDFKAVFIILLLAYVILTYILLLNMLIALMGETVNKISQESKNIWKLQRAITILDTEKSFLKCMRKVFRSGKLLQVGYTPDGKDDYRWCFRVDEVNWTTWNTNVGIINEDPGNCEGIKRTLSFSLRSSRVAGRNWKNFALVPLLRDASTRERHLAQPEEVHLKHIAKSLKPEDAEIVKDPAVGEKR
T2 sequence (F1RLJ0 1-841): as above

## C=C(C)[C@]12C[C@@H](C)[C@@]34O[C@](Cc5ccccc5)(O[C@@H]1[C@@H]3C=C(COC(=O)Cc1ccc(O)c(OC)c1)C[C@]1(O)C(=O)C(C)=C[C@@H]41)O2 [[^3 H]RTX, [^3 H]resiniferatoxin]
[1]; DRG from pigs
  specific binding: Specific binding is observed
[1]; pig DRG
  Bmax (summary): 730 fmol/mg
[1]; pig DRG membranes heated to 55° C. for 10-20 min, 2 experiments
  specific [^3H]RTX binding after heating of membranes: completely inactivates
[1]; pig DRG membranes, 37° C.
  time at which specific binding is maximal: 10 min
[1]; pig DRG, partially purified membrane preparations
  Hill coefficient: 0.9
[1]; pig DRG, partially purified membrane preparations, 2 separate determinations
  Bmax (Scatchard analysis): 700 fmol/mg protein
[1]; pig DRG, partially purified membrane preparations, 2 separate determinations, LIGAND, read-out: Kd (Scatchard analysis)
  Kd: 1700 pM
[1]; pig DRG, mean±SEM, 4 determinations
  Bmax (competition): 730±80 fmol/ mg protein
[2]
  % specific binding: 90%
  Kd: 100 pM
[3]
  detection of [^3H]RTX binding: very difficult
